The record followed here is publication PMC4643019, “Imaging Sites of Inhibition of Proteolysis in Pathomimetic Human Breast Cancer Cultures by Light-Activated Ruthenium Compound” (PLoS ONE, 2015).

Where two headings read alike, the source gives them in different places.

Series [1] addresses T1, CTSB purified from human liver (Homo sapiens, UniProt P07858).
T1 construct: CTSB purified from human liver was purchased from Athens Research & Technology; purchased Athens Research & Technology (Athens, GA, USA); host or cells: human liver (tissue-purified)
The series can be described thus: Cathepsin B activity assay with purified enzyme (Z-Arg-Arg-AMC). Type of series: biochemical. As to conditions: for IC50: CTSB 10 nM, substrate 150 μM. Here is the method:
CTSB purified from human liver was purchased from Athens Research & Technology (Athens, GA, USA). The enzyme activity was determined from kinetic measurements performed by fluorimetric detection of the hydrolysis product AMC at 37°C for 30 min at one-minute intervals using a Tecan SpectraFluor Plus plate-reader. The excitation and emission wavelengths were 360 and 485 nm, respectively. The fluorescent substrate Z-Arg-Arg-AMC (Bachem, Torrance, CA, USA) was used at a final concentration of 150 μM.
The enzyme was activated for 15 minutes with activator buffer (100 μl) containing 5 mM EDTA, 10 mM DTT (pH 5.2) at 37°C. The sample (1 μl) was added and the reaction mixtures were conducted during 45 min under dark (no irradiation) and light (irradiation at 250 W, 395–750 nm) conditions with a tungsten halogen lamp and H2O filter on separate plates. For the experiments under dark conditions, room lights were off and in addition the plate was covered with aluminum foil (light protection); the other plate was exposed to visible light for the same time period. The irradiation wavelength was selected by placing a 395 long-pass filter between the lamp and the sample, along with a 10 cm water cell to absorb infrared light. After photolysis, the reaction was initiated by addition of 200 μl of assay buffer (0.6 mM CaCl2, 0.6 mM MgCl2, 25 mM piperazin-N-N‘-bis[2-ethanosulfonic acid] (disodium salt)), pH 7.3 containing 150 μM Z-Arg-Arg-AMC substrate solution. Enzyme concentration was 10 nM. The experiments were carried out in triplicate in 96-well flat bottom black plates at pH 6.0. Enzyme activities are expressed as a percentage, with 100% equal to activity in the absence of inhibitor. IC50 values were determined by plotting percent activity vs. log (inhibitor concentration).

Series [2] deals with MDA-MB-231 3D MAME cultures. In words: Live-cell proteolysis assay (DQ-collagen IV) in 3D MAME cultures, MDA-MB-231. Type of series: cell-based, human. Here is the method: (§1) Proteolytic cleavage of DQ-collagen IV substrate (Invitrogen, Carlsbad, CA, USA) by live TNBC cells was imaged in real time and quantified as previously described. Briefly, glass coverslips were coated with 50 μl of 16.4 mg/ml Cultrex^TM containing 25 μg/ml DQ-collagen IV and incubated for 15 min at 37°C to solidify. TNBC cells (1.0 x 10^4) were seeded onto coated glass coverslips and incubated for 60 min. Medium containing 2% Cultrex^TM was added to the cells. The sample was added every 48 h. […] Where indicated, assays were performed in the presence of CA074 and CA074Me (5 μM each) (Peptides International, Louisville, KY, USA), compound 1 or compound 2. For experiments with the caged inhibitor, cells were exposed to dark (no irradiation) and light (irradiation at 250 W, 395–750 nm) conditions for 45 min with a tungsten halogen lamp and H2O filter on separate plates. After 4 days of culture, optical sections through the entire depth of the 3D structures were acquired on a confocal microscope and, reconstructed in 3D using Volocity software. At the time of imaging cells were stained with CellTracker Orange and nuclei with Hoechst 33342. Volocity software was used to determine cellular boundaries in each confocal slice and generate a “cytoplasmic mask” as well as to count nuclei. The intensity of DQ-collagen IV degradation fragments per cell was quantified in the entire 3D volume. Degradation fragments were segmented into those present inside or surrounding the cells by using image arithmetic as we have previously described in detail.

The test system of series [3] is Hs578T 3D MAME cultures. In words: Live-cell proteolysis assay (DQ-collagen IV) in 3D MAME cultures, Hs578T. Type of series: cell-based, human. Here is the method: as §1
The subject of series [4] is MDA-MB-231 3D MAME cultures. The series can be described thus: Cell viability (Live/Dead) assay, MDA-MB-231 3D MAME cultures. It counts as cell-based. As to conditions: in the dark or the light, 4 days. Here is the method: (§2) Three-dimensional cultures of TNBC cells were established, grown and treated with compound 2 as described above. After 4 days, a cell viability assay was performed to assess the cytotoxic effects of compound 2. The assay has two components: Calcein AM that fluoresces green when cleaved by intracellular esterases thereby labeling live cells and Ethidium Homodimer-1 that fluoresces red when incorporated in the DNA of dead cells. A solution of 4 μM Ethidium Homodimer-1 and 2 μM Calcein AM was prepared in sterile PBS. Cultures were incubated for 30 minutes at 37°C, washed once with warm PBS and replenished with warm MEGM media for live cell imaging. The samples were then imaged at 10X magnification using a Zeiss 510 META confocal microscope. Tiled 16-panel images and z-stacks through the depth of structures were captured. The images were processed to show top views using Volocity software.

Series [5] deals with Hs578T 3D MAME cultures. The series can be described thus: Cell viability (Live/Dead) assay, Hs578T 3D MAME cultures. Type of series: cell-based. As to conditions: in the dark or the light, 4 days. Here is the method: as §2
Series [6] in a line: Stability in the dark, determined spectrophotometrically (ln A vs. t). Type of series: physicochemical. From the text: This was expected because cis-[Ru(bpy)2Cl2] was used as a racemic mixture of Δ- and Λ stereoisomers. […] The electronic absorption spectrum of 2 is highly consistent with other dications of the general formula cis-[Ru(bpy)2(RCN)2]^2+, where RCN is MeCN,^130 5-cyanouracil,^124 and protease inhibitors structurally related to 1 [17–18]. Data for 2 in water containing 2% acetone show a maximum at 420 nm (ε = 10,360 M^-1cm^-1) assigned to a singlet metal-to-ligand charge transfer (^1MLCT) transition.

Usually IC50 stands for the midpoint of a concentration-inhibition curve. Take `Cc1cccc(CC(NC(=O)c2ccc(Cl)c(Cl)c2)C(=O)NCC#N)c1.Cc1cccc(CC(NC(=O)c2ccc(Cl)c(Cl)c2)C(=O)NCC#N)c1.F[B-](F)(F)F.F[B-](F)(F)F.[Ru+2].c1ccc(-c2ccccn2)nc1.c1ccc(-c2ccccn2)nc1` (mixture of isomers) [compound 2, Δ- and Λ-cis [Ru(bpy)2(1)2](BF4)2]: the IC50 in series [1] (dark (no irradiation) 45 min, read-out: IC50 (dark)) was found to be 3400 nM; in series [1] (light λirr = 395–750 nm, 45 min, 250 W, read-out: IC50 (light)), 280 nM. For the same compound, in series [1] (purified CTSB), the “dark/light IC50 ratio” value was 12. The “degradation of DQ-collagen IV” value is recorded as “significantly reduced” in series [2] (MDA-MB-231, 1 μM, exposed to visible light, 4 days) and “significantly reduced” in the series with Hs578T 3D MAME cultures [3] (1 μM, exposed to visible light, 4 days). Besides, the “inhibition of proteolysis in the dark” value is recorded as “significant inhibition of proteolysis” in series [2] (MDA-MB-231, higher concentrations than 1 μM, dark (data not shown)) and “significant inhibition of proteolysis” in the series on Hs578T 3D MAME cultures [3] (higher concentrations than 1 μM, dark (data not shown)). Also, the “toxicity by cell viability assay” value (in series [4]; in the series on Hs578T 3D MAME cultures [5]) was “did not observe any toxicity” in each case. Also, the “kobs, rate constant for decomposition in the dark” value is given as 1.6 ± 0.1 × 10^−7 s^-1 in series [6] (DMSO, 293 ± 2 K) and 1.2 ± 0.1 × 10^−6 s^-1 in series [6] (phosphate buffered saline, pH 6.5, 293 ± 2 K).
